Laboratory results taken from ChEMBL document CHEMBL1151156, “Lakoochins A and B, new antimycobacterial stilbene derivatives from Artocarpus lakoocha” (J Nat Prod, 2004).
Values after ≈ are worked out from the molar mass of the structure shown. Active and inactive are the calls of the source. No cut-off for these calls is given here.

How the values were obtained:
[1] = Cytotoxicity against human BC cells by SRB assay; format: functional, cell-based
[2] = system: Mycobacterium tuberculosis; assay: Antimycobacterial activity against Mycobacterium tuberculosis H37Ra after 4 days by microplate alamar blue assay; format: functional; conditions: 96 h
KB [3] = assay: Cytotoxicity against human KB cells at 20 ug/ml by SRB assay; format: functional, cell-based
KB [4] = assay: Cytotoxicity against human KB cells by SRB assay; format: functional, cell-based

Compound: Cc1c2ccncc2c(C)c2c1[nH]c1ccccc12 [ELLIPTECINE]
- IC50 [1]: 0.2 µg/mL (≈ 0.812 µM)

Compound: NNC(=O)c1ccncc1 [ISONIAZID]
- MIC [2]: 0.04 µg/mL (≈ 0.292 µM)

Compound: NC[C@H]1O[C@H](O[C@H]2[C@H](O)[C@@H](O[C@H]3O[C@H](CO)[C@@H](O)[C@H](N)[C@H]3O)[C@H](N)C[C@@H]2N)[C@H](O)[C@@H](O)[C@@H]1O.O=S(=O)(O)O [KANAMYCIN SULFATE]
- MIC [2]: 2 µg/mL

Compound: COc1cc(OC)c(CC=C(C)C)c(-c2cc3ccc(O)cc3o2)c1CC=C(C)C [LAKOOCHIN A]
- MIC [2]: 12.5 µg/mL (≈ 30.7 µM)
- Activity (KB [3]): inactive
- IC50 [1]: 6.1 µg/mL (≈ 15 µM)

Compound: CC(C)=CCC/C(C)=C/Cc1c(O)cc(O)c(CC=C(C)C)c1-c1cc2ccc(O)cc2o1 [LAKOOCHIN B]
- IC50 (KB [4]): 6.1 µg/mL (≈ 13.7 µM)
- MIC [2]: 50 µg/mL (≈ 112 µM)
- IC50 [1]: 3.1 µg/mL (≈ 6.94 µM)
